Target: T1, TLR8 (Homo sapiens, UniProt Q9NR97)
T1 construct: host or cells: HEK293 (HEK-BLUE-hTLR8)
T1 sequence (Q9NR97 27-1041): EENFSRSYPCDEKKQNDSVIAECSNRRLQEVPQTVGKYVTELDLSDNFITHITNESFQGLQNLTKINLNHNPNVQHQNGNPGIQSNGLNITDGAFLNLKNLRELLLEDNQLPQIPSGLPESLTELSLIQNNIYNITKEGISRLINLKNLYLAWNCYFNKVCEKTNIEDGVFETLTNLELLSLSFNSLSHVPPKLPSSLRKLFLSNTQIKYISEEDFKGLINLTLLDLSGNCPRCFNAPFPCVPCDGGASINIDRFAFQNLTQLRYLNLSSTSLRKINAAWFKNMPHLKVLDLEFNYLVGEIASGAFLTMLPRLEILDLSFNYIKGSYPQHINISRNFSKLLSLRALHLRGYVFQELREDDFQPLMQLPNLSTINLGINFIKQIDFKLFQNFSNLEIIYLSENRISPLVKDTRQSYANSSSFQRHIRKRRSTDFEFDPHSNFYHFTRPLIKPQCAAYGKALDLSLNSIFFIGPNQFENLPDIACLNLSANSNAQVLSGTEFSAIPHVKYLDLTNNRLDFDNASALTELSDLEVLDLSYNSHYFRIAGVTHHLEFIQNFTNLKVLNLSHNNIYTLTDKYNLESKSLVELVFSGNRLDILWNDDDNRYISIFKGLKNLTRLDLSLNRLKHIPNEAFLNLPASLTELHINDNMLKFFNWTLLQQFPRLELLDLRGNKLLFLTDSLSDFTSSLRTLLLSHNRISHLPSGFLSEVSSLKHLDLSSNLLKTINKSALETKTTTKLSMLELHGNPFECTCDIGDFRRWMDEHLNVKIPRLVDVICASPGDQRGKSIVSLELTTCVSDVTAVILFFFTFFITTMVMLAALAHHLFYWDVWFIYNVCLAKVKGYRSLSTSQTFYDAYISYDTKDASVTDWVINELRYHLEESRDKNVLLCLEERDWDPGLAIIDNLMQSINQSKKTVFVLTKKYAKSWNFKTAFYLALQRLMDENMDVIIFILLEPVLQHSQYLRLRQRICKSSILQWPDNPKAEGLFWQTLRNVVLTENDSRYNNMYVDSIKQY
Assay: HEK-BLUE-hTLR8 cell SEAP reporter assay (Quanti-Blue)
Type: cell-based
Conditions: HEK-BLUE-hTLR8 cells, 0.5 nM to 15 µM, 24 hours
Protocol: In this experiment, the biological activity of TLR7 and TLR8 in the compound of formula I was detected using cell tests. This method was conducted in human embryonic kidney cells (HEK293) expressing TLR family members such as TLR4, TLR7, TLR8 or TLR9. TLR agonists activate TLRs, triggering the activation of downstream NF-kB, which in turn activates the secreted embryonic alkaline phosphatase (SEAP) reporter gene. The activity of SEAP was detected using the Quanti-Blue (InvivoGen) reagent, thereby reflecting the activities of TLR7 and TLR8 agonists.
The detailed experimental method was as follows: HEK-BLUE-hTLR7 and HEK-BLUE-hTLR8 cell lines were purchased from Invivogen Company and cultured in DMEM medium containing 4.5 g/L glucose (Sigma-Aldrich) and 10% fetal bovine serum under the conditions of temperature 37°C, humidity 95% and 5% CO2.
The compound was tested at a concentration ranging from 0.5 nM to 15 µM over a total of 10 concentration gradients. TLR7 or TLR8 agonists with known activity were added as positive controls, and 1 µL of DMSO was added as a negative control.
The cells were treated as follows: the cells were removed from the culture dish and centrifuged to remove the medium, and resuspended in a T-150 bottle with 10 mL of preheated PBS, 12 mL of preheated medium was added, and the cells were gently pipetted up and down and counted under a microscope. A 200,000/mL single-cell suspension was immediately prepared with medium and added to a 96-well plate at 200 µL/well (40,000/well). The final concentration of DMSO was 0.5%.
The compound was added and incubated in an incubator at 37°C, 5% CO2 for 24 hours.
A supernatant at 20 µL/well was aspirated into 180 µL of preheated Quanti-Blue at 37°C, incubated at 37°C for 1.5 hours, and detected for the absorbance (OD value) with a spectrophotometer at 650 nm. The formula for calculating the agonistic effect is as follows:
Effect % = (average OD value of the drug-administered group - average OD value of the DMSO group) / (average OD value of the positive drug group - average OD value of the DMSO group) × 100
Graphpad software was used to fit the concentration-effect curve, and EC50 was calculated. The test results are shown in Table 15 (A denotes < 250 nM, B denotes 250 nM-1 µM, C denotes 1 µM-2 µM, D denotes > 2 µM, and - denotes not listed or not tested): Table 15

SMILES | EC50 [nM]
CCCN(CCO)C(=O)C1=Cc2ccc(C3(C(=O)Nc4cnc5c(c4)CN(C(=O)CNC(=O)[C@H](Cc4ccccc4)NC(=O)CNC(=O)CNC(=O)CCCCCN4C(=O)C=CC4=O)CC5)CC3)cc2N=C(N)C1 | 250 to 1000
CCCN(CCOP(=O)(N[C@@H](C)C(=O)OCc1ccccc1)Oc1ccccc1)C(=O)C1=Cc2ccc(C3(C(=O)Nc4cnc5c(c4)CNCC5)CC3)cc2N=C(N)C1 (single isomer, unassigned) [Compound 25-1] | < 250
CCCN(CCO)C(=O)C1=Cc2ccc(C3(C(=O)Nc4cnc5c(c4)CN(C(=O)C4COC(CN6C(=O)C=CC6=O)OC4)CC5)CC3)cc2N=C(N)C1 (single isomer, unassigned) [II-77, 2-amino-8-(1-((6-(2-((2,5-dioxo-2,5-dihydro-1H-pyrrol-1-yl)methyl)-1,3-dioxan-5-carbonyl)-5,6,7,8-tetrahydro-1,6-naphthyridin-3-yl)carbamoyl)cyclopropyl)-N-(2-hydroxyethyl)-N-propyl-3H-benzo[b]azepine-4-formamide] | 250 to 1000
CCCN(CCO)C(=O)C1=Cc2c(F)cc(C3(C(=O)Nc4cncc(CN)c4)CC3)cc2N=C(N)C1 [Compound 12, 2-amino-8-(1-((5-(aminomethyl)pyridin-3-yl)carbamoyl)cyclopropyl)-6-fluoro-N-(2-hydroxyethyl)-N-propyl-3H-benzo[b]azepine-4-formamide] | < 250
CCCN(CCC)C(=O)C1=Cc2c(F)cc(C3(C(=O)Nc4cncc(CN)c4)CC3)cc2N=C(N)C1 [Compound 13, 2-amino-8-(1-((5-(aminomethyl)pyridin-3-yl)carbamoyl)cyclopropyl)-6-fluoro-N,N-dipropyl-3H-benzo[b]azepine-4-formamide] | < 250
CCCN(CCC)C(=O)C1=Cc2ccc(C3(C(=O)Nc4ccc5c(c4)CNCC5)CC3)cc2N=C(N)C1 [Compound 15, 2-amino-N,N-dipropyl-8-(1-((1,2,3,4-tetrahydroisoquinolin-7-yl)carbamoyl)cyclopropyl)-3H-benzo[b]azepine-4-formamide] | < 250
CCCN(CCC)C(=O)C1=Cc2ccc(C3(C(=O)Nc4cncc(CN)c4)CC3)cc2N=C(N)C1 [Compound 16] | < 250
CCCN(CCO)C(=O)C1=Cc2ccc(C3(C(=O)NCc4ccc(N)cc4)CC3)cc2N=C(N)C1 [Compound 17, 2-amino-8-(1-((4-aminobenzyl)carbamoyl)cyclopropyl)-N-(2-hydroxyethyl)-N-propyl-3H-benzo[b]azepine-4-formamide] | < 250
CCCN(CCO)C(=O)C1=Cc2ccc(C3(C(=O)NCc4cccc(N)c4)CC3)cc2N=C(N)C1 [Compound 18, 2-amino-8-(1-((3-aminobenzyl)carbamoyl)cyclopropyl)-N-(2-hydroxyethyl)-N-propyl-3H-benzo[b]azepine-4-formamide] | < 250
CCCN(CCO)C(=O)C1=Cc2ccc(C3(C(=O)Nc4cccc(N)c4)CC3)cc2N=C(N)C1 [Compound 19, 2-amino-8-(1-((3-aminophenyl)carbamoyl)cyclopropyl)-N-(2-hydroxyethyl)-N-propyl-3H-benzo[b]azepine-4-formamide] | < 250
CCCN(CCO)C(=O)C1=Cc2ccc(C3(C(=O)Nc4cncc(N)c4)CC3)cc2N=C(N)C1 [Compound 20, 2-amino-8-(1-((5-aminopyridin-3-yl)carbamoyl)cyclopropyl)-N-(2-hydroxyethyl)-N-propyl-3H-benzo[b]azepine-4-formamide] | 250 to 1000
CCCN(CCO)C(=O)C1=Cc2ccc(C3(C(=O)NCc4cncc(N)c4)CC3)cc2N=C(N)C1 [Compound 22, 2-amino-8-(1-(((5-aminopyridin-3-yl)methyl)carbamoyl)cyclopropyl)-N-(2-hydroxyethyl)-N-propyl-3H-benzo[b]azepine-4-formamide] | 250 to 1000
CCCN(OCC)C(=O)C1=Cc2ccc(C3(C(=O)Nc4cnc5c(c4)CNCC5)CC3)cc2N=C(N)C1 [Compound 23, 2-amino-N-ethoxy-N-propyl-8-(1-((5,6,7,8-tetrahydro-1,6-naphthyridin-3-yl)carbamoyl)cyclopropyl)-3H-benzo[b]azepine-4-formamide] | < 250
CCCN(CCO)C(=O)C1=Cc2ccc(C3(C(=O)Nc4cnc5c(c4)CN(C(=O)[C@H](CCCNC(N)=O)NC(=O)[C@@H](N)C(C)C)CC5)CC3)cc2N=C(N)C1 [Example 33, 2-amino-8-(1-((6-((S)-2-((S)-2-amino-3-methylbutanoylamino)-5-ureidopentanoyl)-5,6,7,8-tetrahydro-1,6-naphthyridin-3-yl)carbamoyl)cyclopropyl)-N-(2-hydroxyethyl)-N-propyl-3H-benzo[b]azepine-4-formamide] | < 250
CCCN(CCO)C(=O)C1=Cc2ccc(C3(C(=O)Nc4cnc5c(c4)CN(C(=O)CCOCCOCCNC(=O)CCN4C(=O)C=CC4=O)CC5)CC3)cc2N=C(N)C1 [II-7, 2-amino-8-(1-((6-(3-(2-(2-(3-(2,5-dioxo-2,5-dihydro-1H-pyrrol-1-yl)propionylamino)ethoxy)ethoxy)propionyl)-5,6,7,8-tetrahydro-1,6-naphthyridin-3-yl)carbamoyl)cyclopropyl)-N-(2-hydroxyethyl)-N-propyl-3H-benzo[b]azepine-4-formamide] | 250 to 1000
CCCN(CCO)C(=O)C1=Cc2ccc(C3(C(=O)Nc4cnc5c(c4)CN(C(=O)CCOCCOCCOCCOCCOCCOCCNC(=O)CCN4C(=O)C=CC4=O)CC5)CC3)cc2N=C(N)C1 [II-12, 2-amino-8-(1-((6-(1-(2,5-dioxo-2,5-dihydro-1H-pyrrol-1-yl)-3-oxo-7,10,13,16,19,22-hexaoxa-4-azapentacosan-25-acyl)-5,6,7,8-tetrahydro-1,6-naphthyridin-3-yl)carbamoyl)cyclopropyl)-N-(2-hydroxyethyl)-N-propyl-3H-benzo[b]azepine-4-formamide] | 250 to 1000
CCCN(CCO)C(=O)C1=Cc2ccc(C3(C(=O)Nc4cnc5c(c4)CN(C(=O)CCOCCOCCNC(=O)[C@H](CCCNC(N)=O)NC(=O)[C@@H](NC(=O)CCCCCN4C(=O)C=CC4=O)C(C)C)CC5)CC3)cc2N=C(N)C1 [II-17, 2-amino-8-(1-((6-((12S,15S)-22-(2,5-dioxo-2,5-dihydro-1H-pyrrol-1-yl)-15-isopropyl-11,14,17-trioxo-12-(3-ureidopropyl)-4,7-dioxa-10,13,16-triazabehenoyl)-5,6,7,8-tetrahydro-1,6-naphthyridin-3-yl)carbamoyl)cyclopropyl)-N-(2-hydroxyethyl)-N-propyl-3H-benzo[b]azepine-4-formamide] | 250 to 1000
CCCN(CCO)C(=O)C1=Cc2ccc(C3(C(=O)Nc4cnc5c(c4)CN(C(=O)CCOCCOCCOCCOCCOCCOCCNC(=O)[C@H](CCCNC(N)=O)NC(=O)[C@@H](NC(=O)CCCCCN4C(=O)C=CC4=O)C(C)C)CC5)CC3)cc2N=C(N)C1 [II-18, 2-amino-8-(1-((6-((24S,27S)-34-(2,5-dioxo-2,5-dihydro-1H-pyrrol-1-yl)-27-isopropyl-23,26,29-trioxo-24-(3-ureidopropyl)-4,7,10,13,16,19-hexaoxa-22,25,28-triazatetratriacontanacyl)-5,6,7,8-tetrahydro-1,6-naphthyridin-3-yl)carbamoyl)cyclopropyl)-N-(2-hydroxyethyl)-N-propyl-3H-benzo[b]azepine-4-formamide] | 250 to 1000

— patent publication EP4596536A1 (Shanghai de Novo Pharmatech Co., Ltd., priority 2022, dated 2024)
